This is an account of results in patent US20260015350A1, “AZAQUINAZOLINE PAN-KRAS INHIBITORS” (Mirati Therapeutics, Inc., priority 2022, published 2026).

In experiment [1] the target is T1, KRas^G12D (Homo sapiens, UniProt P01116, G12D).
T1 construct: Biotinylated KRas (corresponding to amino acids 1-169, produced at Accelegan Inc.); biotin (biotinylated); purchased Accelegan Inc
The experiment is described as follows: KRas binding assay (TR-FRET tracer displacement), KRas G12D.

Experiment [2] has as its system KRas-mediated phosphorylation of ERK in PSN1 cells. In words: Inhibition of KRas-mediated phosphorylation of ERK (Cisbio HTRF pERK), PSN1 cells. It counts as cell-based. Conditions: Homo sapiens. The procedure: (§1) Inhibition of KRas Phosphorylation of ERK (HTRF) by Exemplary Compounds of Formula (I)
(§2) Cisbio HTRF Advanced PERK Assay Catalog #64AERPEH
(§3) Day 1: Seed 6,000 cells/well-25 μl/well in 384-well white solid bottom plate; RPM1_10% FBS. Incubate overnight at 37° C./5% CO2.
(§4) Incubate for 4 hours at room temperature covered.
(§5) Read HTRF using ClarioStar
(In general: TR-FRET usually uses a lanthanide donor and a delayed reading to cut background.)

Experiment [3] relates to KRas-mediated phosphorylation of ERK in AsPC-1 cells. In words: Inhibition of KRas-mediated phosphorylation of ERK (Cisbio HTRF pERK), AsPC-1 cells. It counts as cell-based. Particulars: Homo sapiens; for IC50: ASPC1, AsPC-1 cells, HTRF pERK; for inhibition at 0.1 µM: ASPC1, 3 h, single point, 100 nM compound, 3 hrs, AsPC-1 cells. In short, it runs like this: (§6)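 Min control wells contained 0.2 uM Trametinib, while test compounds ran as 10 doses (3-fold, top 10 uM; 0.8% DMSO final) on cells for 3 hrs. After 40 mins lysis at 4° C, lysates were probed with HTRF antibodies for 2 hrs at room temperature.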

For experiment [4], the target named is T2, KRas^G12V (Homo sapiens, UniProt P01116, G12V).
T2 construct: Biotinylated KRas (corresponding to amino acids 1-169, produced at Accelegan Inc.); biotin (biotinylated); purchased Accelegan Inc
In words: KRas binding assay (TR-FRET tracer displacement), KRas G12V.

Experiment [5] concerns the target T3, KRas^G12R (Homo sapiens, UniProt P01116, G12R).
T3 construct: Biotinylated KRas (corresponding to amino acids 1-169, produced at Accelegan Inc.); biotin (biotinylated); purchased Accelegan Inc
In words: KRas binding assay (TR-FRET tracer displacement), KRas G12R.

For experiment [6], the system named is KRas-mediated phosphorylation of ERK in H727 cells. In words: Inhibition of KRas-mediated phosphorylation of ERK (Cisbio HTRF pERK), H727 cells. The class given is cell-based. Conditions: Homo sapiens; for IC50: NCI-H727, H727 cells, HTRF pERK; for inhibition at 0.1 µM: NCI-H727, 3 h, single point, 100 nM compound, 3 hrs, H727 cells. In short, it runs like this:
as §6

Experiment [7] deals with KRas-mediated phosphorylation of ERK in MKN1 cells. In words: Inhibition of KRas-mediated phosphorylation of ERK (Cisbio HTRF pERK), MKN1 cells. Conditions: Homo sapiens, MKN-1. The class given is cell-based. The procedure: as §1, §2, §3, §4, §5
Experiment [8] deals with KRas-mediated phosphorylation of ERK in H460 cells. In words: Inhibition of KRas-mediated phosphorylation of ERK (Cisbio HTRF pERK), H460 cells. The class given is cell-based. Conditions: Homo sapiens; for inhibition at 0.1 µM: NCI-H460, 3 h, single point, 100 nM compound, 3 hrs; for IC50: NCI-H460, HTRF pERK. An outline of the steps: as §6
Experiment [9] deals with KRas-mediated phosphorylation of ERK in A549 cells. In words: Inhibition of KRas-mediated phosphorylation of ERK (Cisbio HTRF pERK), A549 cells. The class given is cell-based. Conditions: Homo sapiens; for inhibition at 0.1 µM: A549, 3 h, single point, 100 nM compound, 3 hrs; for IC50: HTRF pERK. In short, it runs like this:
as §6

The test system of experiment [10] is KRas-mediated phosphorylation of ERK in H358 cells. The experiment is described as follows: Inhibition of KRas-mediated phosphorylation of ERK (Cisbio HTRF pERK), H358 cells. The class given is cell-based. Particulars: Homo sapiens; for inhibition at 0.1 µM: NCI-H358, 3 h, single point, 100 nM compound, 3 hrs; for IC50: NCI-H358, HTRF pERK. In short, it runs like this: as §6

Experiment [11] deals with KRas-mediated phosphorylation of ERK in HCT116 cells. In words: Inhibition of KRas-mediated phosphorylation of ERK (Cisbio HTRF pERK), HCT116 cells. It counts as cell-based. Particulars: Homo sapiens; for inhibition at 0.1 µM: HCT-116, 3 h, single point, 100 nM compound, 3 hrs; for IC50: HCT-116, HTRF pERK. In short, it runs like this: as §6

T2 sequence (P01116 1-169 isoform P01116-2 G12V): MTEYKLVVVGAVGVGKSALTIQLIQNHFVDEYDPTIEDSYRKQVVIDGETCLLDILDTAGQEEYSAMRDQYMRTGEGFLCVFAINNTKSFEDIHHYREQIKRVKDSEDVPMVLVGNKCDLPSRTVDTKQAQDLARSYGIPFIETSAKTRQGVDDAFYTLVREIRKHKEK
T3 sequence (P01116 1-169 isoform P01116-2 G12R): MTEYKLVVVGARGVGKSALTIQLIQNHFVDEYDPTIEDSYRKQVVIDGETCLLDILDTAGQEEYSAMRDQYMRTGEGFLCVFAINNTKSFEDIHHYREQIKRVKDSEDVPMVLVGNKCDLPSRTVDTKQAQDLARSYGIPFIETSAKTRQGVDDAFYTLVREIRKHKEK
T1 sequence (P01116 1-169 isoform P01116-2 G12D): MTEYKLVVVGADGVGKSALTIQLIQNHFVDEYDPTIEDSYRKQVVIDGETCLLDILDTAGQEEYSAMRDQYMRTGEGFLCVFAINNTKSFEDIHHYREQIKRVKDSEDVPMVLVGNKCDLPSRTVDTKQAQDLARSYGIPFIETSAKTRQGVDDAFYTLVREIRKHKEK

With `CCc1c(F)ccc2cc(O)cc(-c3ncc4c(N5C[C@H]6C[C@@H](C5)[C@H](O)[C@H]6O)nc(OC[C@@]56CCCN5C[C@H](F)C6)nc4c3F)c12` (single isomer, unassigned) [Example 569], the IC50 is 5 nM in [1]; more than 10000 nM in [2]; 5110 nM in [3]; less than 2 nM in [4]; less than 2 nM in experiment [5]; 444 nM in [6]. Also, in [7], the midpoint of inhibition, the IC50, lay at 69 nM.

As to `CCc1c(F)ccc2cc(O)cc(-c3ncc4c(N5CCC[C@@]6(CC[S@+]([O-])C6)C5)nc(OC[C@@]56CCCN5C[C@H](F)C6)nc4c3F)c12` (single isomer, unassigned) [Example 624], the IC50 in [1] was 19 nM; in [2], more than 10000 nM; in experiment [3], 4030 nM; in [4], 17 nM; in experiment [5], 41 nM; in [6], 3990 nM. In experiment [7], the half-inhibitory concentration (IC50) was 834 nM.

As to `CCc1c(F)ccc2cc(O)cc(-c3ncc4c(N5CCC[C@]6(CC[S@+]([O-])C6)C5)nc(OC[C@@]56CCCN5C[C@H](F)C6)nc4c3F)c12` (single isomer, unassigned) [Example 625], the IC50 is 21 nM in experiment [1]; more than 10000 nM in experiment [2]; 4740 nM in experiment [3]; 10 nM in [4]; 17 nM in [5]; 2850 nM in [6]. In addition, in experiment [7], the IC50 was 195 nM.

`Cc1c(O)cc2ccccc2c1-c1ncc2c(N3C[C@@H]4C[C@H](C3)[C@H](O)C4)nc(OC[C@@]34CCCN3C[C@H](F)C4)nc2c1F` [Example 786, (1R,5R,6R)-3-(8-fluoro-2-(((2R,7aS)-2-fluorohexahydro-1H-pyrrolizin-7a-yl)methoxy)-7-(3-hydroxy-2-methylnaphthalen-1-yl)pyrido[4,3-d]pyrimidin-4-yl)-3-azabicyclo[3.2.1]octan-6-ol]: the IC50 in [1] came to 423 nM; in experiment [3], 4960 nM; in experiment [4], 110 nM; in experiment [5], 160 nM; in experiment [6], 2820 nM. Besides, the inhibition at 0.1 µM in experiment [8] was 8%; in experiment [9], 19%; in experiment [3], 1%; in [10], -3%; in [6], 15%; in [11], 0%.

In the case of `CCc1c(F)ccc2cc(O)cc(-c3ncc4c(N5CCC[C@@](C)(O)C5)nc(OC[C@]56CCCN5[C@@H](CNS(=O)(=O)N(C)C)CC6)nc4c3F)c12` [Example 787, (R)-1-(7-(8-ethyl-7-fluoro-3-hydroxynaphthalen-1-yl)-8-fluoro-2-(((3R,7aR)-3-(((dimethylsulfamoyl)amino)methyl)tetrahydro-1H-pyrrolizin-7a(5H)-yl)methoxy)pyrido[4,3-d]pyrimidin-4-yl)-3-methylpiperidin-3-ol], the IC50 is 4 nM in [1]; 1670 nM in experiment [3]; 3 nM in experiment [4]; 6 nM in experiment [5]; 2080 nM in experiment [6]. Further, the inhibition at 0.1 µM in experiment [8] is 11%; in experiment [9], 14%; in experiment [3], 23%; in experiment [10] it was 8%; in experiment [6] it was 33%; in experiment [11], 9%.

In the case of `CCc1c(F)ccc2cc(O)cc(-c3ncc4c(N5CCCC6(CC6C#N)C5)nc(OC[C@@]56CCCN5C[C@H](F)C6)nc4c3F)c12` (stereo partly drawn) [Example 851, 5-(7-(8-ethyl-7-fluoro-3-hydroxynaphthalen-1-yl)-8-fluoro-2-(((2R,7aS)-2-fluorotetrahydro-1H-pyrrolizin-7a(5H)-yl)methoxy)pyrido[4,3-d]pyrimidin-4-yl)-5-azaspiro[2.5]octane-1-carbonitrile], the IC50 in experiment [1] is 36 nM; in [8], 159 nM; in experiment [9] it was 397 nM; in experiment [3] it was 1210 nM; in [10] it was 264 nM; in experiment [4], 12 nM. Moreover, the figures for the IC50 in experiment [5], in experiment [6] and in experiment [11] were 9 nM, 932 nM and 475 nM, respectively.

With `CCc1c(F)ccc2cc(O)cc(-c3ncc4c(N5CC6CNC(CO)C6C5)nc(OC[C@@]56CCCN5C[C@H](F)C6)nc4c3F)c12` (stereo partly drawn) [Example 875, 5-ethyl-6-fluoro-4-(8-fluoro-2-(((2R,7aS)-2-fluorotetrahydro-1H-pyrrolizin-7a(5H)-yl)methoxy)-4-(4-(hydroxymethyl)hexahydropyrrolo[3,4-c]pyrrol-2 (1H)-yl)pyrido[4,3-d]pyrimidin-7-yl)naphthalen-2-ol], the IC50 in [1] was 17 nM; in [8], more than 10000 nM; in experiment [9], more than 10000 nM; in experiment [3], more than 10000 nM; in experiment [10], more than 10000 nM; in [4], 34 nM. For the same compound, the results for the concentration for half-maximal inhibition (IC50) in experiment [5], in [6] and in experiment [11] were 37 nM, more than 10000 nM and more than 10000 nM, respectively.

On to `CCOC(=O)C12CCC(CN(c3nc(OC[C@@]45CCCN4C[C@H](F)C5)nc4c(F)c(-c5cc(O)cc6ccc(F)c(CC)c56)ncc34)C1)C2(F)F` (stereo partly drawn) [Example 899, ethyl 3-(7-(8-ethyl-7-fluoro-3-hydroxynaphthalen-1-yl)-8-fluoro-2-(((2R,7aS)-2-fluorotetrahydro-1H-pyrrolizin-7a(5H)-yl)methoxy)pyrido[4,3-d]pyrimidin-4-yl)-8,8-difluoro-3-azabicyclo[3.2.1]octane-1-carboxylate], for which the IC50 in experiment [1] is 692 nM; in experiment [8], 1290 nM; in experiment [9], 3530 nM; in experiment [3], 5370 nM; in experiment [10] it was 1410 nM; in experiment [4], 240 nM. Moreover, the IC50 in [5] came out at 66 nM; in experiment [6], 4410 nM; in experiment [11], 6690 nM.

With `CCc1c(F)ccc2cc(O)cc(-c3ncc4c(N5CC6CCC(CC(N)=O)(C6)C5)nc(OC[C@@]56CCCN5C[C@H](F)C6)nc4c3F)c12` (stereo partly drawn) [Example 908, 2-(3-(7-(8-ethyl-7-fluoro-3-hydroxynaphthalen-1-yl)-8-fluoro-2-(((2R,7aS)-2-fluorotetrahydro-1H-pyrrolizin-7a(5H)-yl)methoxy)pyrido[4,3-d]pyrimidin-4-yl)-3-azabicyclo[3.2.1]octan-1-yl)acetamide], the IC50 in experiment [1] is 14 nM; in experiment [8], 630 nM; in [9], 1630 nM; in [3], 5800 nM; in experiment [10], 707 nM; in [4], 6 nM. The IC50 in [5] was found to be 8 nM; in [6], 2310 nM; in [11], 1730 nM.

On to `C[C@@]1(O)CCCN(c2nc(OC[C@@]34CCCN3C[C@H](F)C4)nc3c(F)c(-c4cc(O)cc5ccccc45)ncc23)C1` [Example 917, (R)-1-(8-fluoro-2-(((2R,7aS)-2-fluorotetrahydro-1H-pyrrolizin-7a(5H)-yl)methoxy)-7-(3-hydroxynaphthalen-1-yl)pyrido[4,3-d]pyrimidin-4-yl)-3-methylpiperidin-3-ol], for which the IC50 was 4 nM in experiment [1]; 198 nM in experiment [8]; 233 nM in experiment [9]; 149 nM in experiment [3]; 54 nM in [10]; 7 nM in [4]. Further, the IC50 in [5] is 12 nM; in [6], 223 nM; in experiment [11], 151 nM.

By IC50 is commonly meant the concentration needed to halve the response being measured. Low values mean greater potency in that assay, high ones weaker potency in that assay. By inhibition is commonly meant the change of the read-out against control, counted positive when it falls.
